Measurements from PMC6364417, “Kinase inhibitor library screening identifies synergistic drug combinations effective in sensitive and resistant melanoma cells” (Journal of Experimental & Clinical Cancer Research : CR, 2019).

What was measured:
Assay in all cases: Kinase inhibitor library screening, PrestoBlue cell viability, 1 or 10 μM, 72 h
[1] = test system: A375-XP cells (Vemurafenib-resistant); details: for viability at 1 µM / viability at 10 µM: Homo sapiens, A-375, 72 h; for viability at 1 µM: read-out: cell viability, A375 XP, 1μΜ; for viability at 10 µM: read-out: cell viability, A375 XP, 10μΜ; for cell viability (kinase inhibitor library screening): in %
IGR37 cells (parental) = details: for viability at 1 µM / viability at 10 µM: Homo sapiens, IGR-37, 72 h; for viability at 1 µM: read-out: cell viability, IGR37 Parental, 1μΜ; for viability at 10 µM: read-out: cell viability, IGR37 Parental, 10μΜ
501Mel cells (parental) = details: for viability at 1 µM / viability at 10 µM: Homo sapiens; for viability at 1 µM: read-out: cell viability, 501Mel Parental, 1μΜ; for viability at 10 µM: read-out: cell viability, 501Mel Parental, 10μΜ
Summary of the method: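 Kinase inhibitors added at two fixed concentrations; 72 h exposure; PrestoBlue readout; % viability vs untreated; n ≥ 2 per line.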

[2] = test system: 501Mel-GP cells (Dabrafenib-resistant); details: for viability at 1 µM / viability at 10 µM: Homo sapiens; for viability at 1 µM: read-out: cell viability, 501Mel GP, 1μΜ; for viability at 10 µM: read-out: cell viability, 501Mel GP, 10μΜ
[3] = test system: 501Mel-XP cells (Vemurafenib-resistant); details: for viability at 1 µM / viability at 10 µM: Homo sapiens; for viability at 1 µM: read-out: cell viability, 501Mel XP, 1μΜ; for viability at 10 µM: read-out: cell viability, 501Mel XP, 10μΜ
[4] = test system: IGR37-GP cells (Dabrafenib-resistant); details: for viability at 1 µM / viability at 10 µM: Homo sapiens, IGR-37, 72 h; for viability at 1 µM: read-out: cell viability, IGR37 GP, 1μΜ; for viability at 10 µM: read-out: cell viability, IGR37 GP, 10μΜ
[5] = test system: IGR37-XP cells (Vemurafenib-resistant); details: for viability at 1 µM / viability at 10 µM: Homo sapiens, IGR-37, 72 h; for viability at 1 µM: read-out: cell viability, IGR37 XP, 1μΜ; for viability at 10 µM: read-out: cell viability, IGR37 XP, 10μΜ
[6] = test system: A375-GP cells (Dabrafenib-resistant); details: for viability at 1 µM / viability at 10 µM: Homo sapiens, A-375, 72 h; for viability at 1 µM: read-out: cell viability, A375 GP, 1μΜ; for viability at 10 µM: read-out: cell viability, A375 GP, 10μΜ; for cell viability (kinase inhibitor library screening): in %
A375 cells (parental) = details: for viability at 1 µM / viability at 10 µM: Homo sapiens, A-375, 72 h; for viability at 1 µM: read-out: cell viability, A375 Parental, 1μΜ; for viability at 10 µM: read-out: cell viability, A375 Parental, 10μΜ; for cell viability (kinase inhibitor library screening): in %

Compound | viability at 1 µM [1] | viability at 10 µM [1] | viability at 1 µM (IGR37 cells (parental)) | viability at 10 µM (IGR37 cells (parental)) | viability at 1 µM (501Mel cells (parental); 72 h) | viability at 10 µM (501Mel cells (parental); 72 h) | viability at 1 µM ([2]; 72 h) | viability at 10 µM ([2]; 72 h) | viability at 1 µM ([3]; 72 h) | viability at 10 µM ([3]; 72 h) | viability at 1 µM [4] | viability at 10 µM [4] | viability at 1 µM [5] | viability at 10 µM [5] | viability at 1 µM [6] | viability at 10 µM [6] | viability at 1 µM (A375 cells (parental)) | viability at 10 µM (A375 cells (parental)) | other results
N#CC[C@H](C1CCCC1)n1cc(-c2ncnc3[nH]ccc23)cn1 [Ruxolitinib (INCB018424)] | 102% | 106% | 97% | 96.3% | 95.6% | 96.5% | 103% | 87.9% | 93.9% | 86.6% | 93.2% | 88.6% | 103% | 76.6% | 95.8% | 88.9% | 102% | 92.9% | 
CN(C)CCOc1ccc(-c2nc(-c3ccncc3)c(-c3ccc4c(c3)CC/C4=N\O)[nH]2)cc1 [SB590885] |  |  |  |  |  |  |  |  |  |  |  |  |  |  |  |  |  |  | cell viability (kinase inhibitor library screening) ([1]; A375 XP, 1μΜ): 71.7; cell viability (kinase inhibitor library screening) ([1]; A375 XP, 10μΜ): 18.9; cell viability (kinase inhibitor library screening) (IGR37 cells (parental); IGR37 Parental, 1μΜ, in %): 52.0; cell viability (kinase inhibitor library screening) (IGR37 cells (parental); IGR37 Parental, 10μΜ, in %): 40.7; cell viability (kinase inhibitor library screening) (501Mel cells (parental); 501Mel Parental, 1μΜ, in %): 74.7; cell viability (kinase inhibitor library screening) (501Mel cells (parental); 501Mel Parental, 10μΜ, in %): 0.649; cell viability (kinase inhibitor library screening) ([2]; 501Mel GP, 1μΜ, in %): 110.5; cell viability (kinase inhibitor library screening) ([2]; 501Mel GP, 10μΜ, in %): 0.56; cell viability (kinase inhibitor library screening) ([3]; 501Mel XP, 1μΜ, in %): 121.3; cell viability (kinase inhibitor library screening) ([3]; 501Mel XP, 10μΜ, in %): 0.7; cell viability (kinase inhibitor library screening) ([4]; IGR37 GP, 10μΜ, in %): 79.6; cell viability (kinase inhibitor library screening) ([5]; IGR37 XP, 10μΜ, in %): 30.0; cell viability (kinase inhibitor library screening) ([6]; A375 GP, 1μΜ): 73.8; cell viability (kinase inhibitor library screening) ([6]; A375 GP, 10μΜ): 25.8; cell viability (kinase inhibitor library screening) (A375 cells (parental); A375 Parental, 1μΜ): 38.0; cell viability (kinase inhibitor library screening) (A375 cells (parental); A375 Parental, 10μΜ): 33.1
Oc1ccc(-c2nc(-c3ccncc3)c(-c3ccc(F)cc3)[nH]2)cc1 [SB 202190] |  |  |  |  |  |  |  |  |  |  |  |  |  |  |  |  |  |  | Cell viability in kinase inhibitor library screening, A375 XP, 10μΜ ([1]; A375 XP, 10μΜ, 72 h): 98.7; Cell viability in kinase inhibitor library screening, IGR37 Parental, 1μΜ (IGR37 cells (parental); IGR37 Parental, 1μΜ, 72 h, in %): 118.8; Cell viability in kinase inhibitor library screening, IGR37 Parental, 10μΜ (IGR37 cells (parental); IGR37 Parental, 10μΜ, 72 h, in %): 83.2; Cell viability in kinase inhibitor library screening, 501Mel Parental, 1μΜ (501Mel cells (parental); 501Mel Parental, 1μΜ, 72 h, in %): 105.7; Cell viability in kinase inhibitor library screening, 501Mel Parental, 10μΜ (501Mel cells (parental); 501Mel Parental, 10μΜ, 72 h, in %): 89.1; Cell viability in kinase inhibitor library screening, 501Mel GP, 1μΜ ([2]; 501Mel GP, 1μΜ, 72 h, in %): 108.3; Cell viability in kinase inhibitor library screening, 501Mel GP, 10μΜ ([2]; 501Mel GP, 10μΜ, 72 h, in %): 90.0; Cell viability in kinase inhibitor library screening, 501Mel XP, 1μΜ ([3]; 501Mel XP, 1μΜ, 72 h, in %): 98.4; Cell viability in kinase inhibitor library screening, 501Mel XP, 10μΜ ([3]; 501Mel XP, 10μΜ, 72 h, in %): 74.6; Cell viability in kinase inhibitor library screening, IGR37 GP, 10μΜ ([4]; IGR37 GP, 10μΜ, 72 h): 85.3%; Cell viability in kinase inhibitor library screening, IGR37 GP, 1μΜ ([4]; IGR37 GP, 1μΜ, 72 h, in %): 104.9; Cell viability in kinase inhibitor library screening, IGR37 XP, 10μΜ ([5]; IGR37 XP, 10μΜ, 72 h): 56.3%; Cell viability in kinase inhibitor library screening, IGR37 XP, 1μΜ ([5]; IGR37 XP, 1μΜ, 72 h, in %): 103.1; Cell viability in kinase inhibitor library screening, A375 GP, 1μΜ ([6]; A375 GP, 1μΜ, 72 h): 105.4; Cell viability in kinase inhibitor library screening, A375 GP, 10μΜ ([6]; A375 GP, 10μΜ, 72 h): 98.4; Cell viability in kinase inhibitor library screening, A375 Parental, 10μΜ (A375 cells (parental); A375 Parental, 10μΜ, 72 h): 64.6; Cell viability in kinase inhibitor library screening, A375 Parental, 1μΜ (A375 cells (parental); A375 Parental, 1μΜ, 72 h): 114.0
Cn1cc(C2=C(c3ccc(Cl)cc3Cl)C(=O)NC2=O)c2ccccc21 [SB 216763] | 109% | 79.9% | 116% | 99% | 101% | 82.6% | 106% | 74.1% | 96.9% | 73.3% | 105% | 88.4% | 111% | 65.4% | 104% | 67% | 111% | 68.1% | 
